Experimental data reported in US11338009B2 (The Children's Hospital of Philadelphia, priority 2017, dated 2022).
Read-outs that look alike come from different tables or passages of the source. Each block holds one compound with its values, some of them ahead of it.

Legend:
[1] = biological target: T1, hCC L68Q variant (Homo sapiens, UniProt P01034, L94Q); experiment: Incubation of supernatants and cellular extracts of hCC-expressing HEK-293T cells with reducing agents, non-reducing SDS-PAGE/Western blot for cystatin C; format: biochemical; conditions: for concentration at which equivalent loss of high molecular signal was observed: supernatants or cell extracts treated in vitro (FIG. 6); for ability to disrupt high molecular weight complexes of L68Q Cyst-C: supernatants or cell extracts treated in vitro, 1 h at 37 C (FIG. 6); for oligomerization of hCC WT and L68Q variant in presence of reducing agent: DTT 50 mM or β-mercaptoethanol 5% in sample buffer, lysates and supernatants; for inhibition at 3000 µM / HMW of secreted hCC L68Q (quantitation): 3 mM; for HMW of secreted hCC L68Q (quantitation) / oligomerization/dimerization levels of secreted hCC L68Q variant in vitro: supernatants, 37° C. for 60 min; for high molecular weight complexes of L68Q Cyst-C: supernatants and cell extracts, 1 h at 37° C. (FIG. 5)
T1 construct: Dashed line represents the N-terminal signal peptide subject to proteolysis; expressed in transfected cells
T1 sequence (P01034 27-146 L94Q): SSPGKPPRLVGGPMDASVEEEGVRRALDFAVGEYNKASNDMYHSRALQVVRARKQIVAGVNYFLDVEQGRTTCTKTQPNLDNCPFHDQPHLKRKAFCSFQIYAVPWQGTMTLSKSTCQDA
Description: A plasmid containing a cDNA of CST3 was obtained from Dharmacon (Lafayette, Colo.). The full length coding sequence was amplified with a c-terminal Myc tag by PCR using the forward primer […] All sequences were confirmed by Sanger sequencing. […] After transfection cells were incubated with fresh medium containing puromycin (1 μg/ml) for 3 weeks. After selection, stable clones of each transfectant were generated by limiting dilution.
After clearing the cell lysates by centrifugation (10 minutes, 21,000×g, 4° C.), the supernatants were collected and used for Western blotting. Sample buffer containing SDS, glycerol, Tris-HCl pH 6.8, and bromophenol blue was added to each sample to the following final concentrations: 2% SDS, 10% glycerol, 50 mM Tris-HCl, 0.02% bromophenol blue. In samples that were reduced, either DTT (50 mM final concentration) or β-mercaptoethanol (5% final concentration) were added. […] Proteins were transferred to PVDF membranes (Millipore, Billerica, Mass.) and blotted with anti-hCystatin C, and developed by enhanced chemiluminescence (ECL; Thermo Fisher Scientific). ECL films were scanned, and densities of bands were determined using the gel analysis features of Fiji.^59
(§1) The means and standard deviations of data were calculated. One-sided T-test tests were used to determine the level of significance with respect to the untreated samples, with p<0.05 being considered statistically significant.

[2] = biological target: T2, secreted hCC L68Q (Homo sapiens, UniProt P01034, L94Q); experiment: Treatment of live HEK-293T cells expressing hCC WT or L68Q with compounds, Western blot of supernatants or lysates; format: cell-based; conditions: for presence of HMW and LMW of secreted hCC L68Q / reduction of HMW and LMW of secreted hCC L68Q: 10 mM; for presence of HMW and LMW of secreted hCC L68Q: 24 h and 48 h time points; for reduction of HMW and LMW of secreted hCC L68Q: 72 h; for effect on oligomerization of secreted hCC L68Q: lower doses (below 10 mM)
T2 construct: Dashed line represents the N-terminal signal peptide subject to proteolysis; expressed in transfected cells
T2 sequence (P01034 27-146 L94Q): T1 sequence (P01034 27-146 L94Q)
Description: HEK-293T cells expressing hCC WT or the L68Q variant were washed twice with ice-cold phosphate-buffered saline (PBS) and lysed on ice using a freshly prepared ice-cold cell lysis buffer containing 50 mM Tris-HCl, pH 7.4, 100 mM NaCl, 50 mM β-glycerophosphate, 10% glycerol (w/v), 1% NP-40 (w/v), 1 mM EDTA, 2 mM NaVO4, and a complete, EDTA-free, protein inhibitor cocktail (Roche Applied Science, Mannheim Germany) at 20 μl per mL of lysis buffer. After clearing the cell lysates by centrifugation (10 minutes, 21,000×g, 4° C.), the supernatants were collected and used for Western blotting. Sample buffer containing SDS, glycerol, Tris-HCl pH 6.8, and bromophenol blue was added to each sample to the following final concentrations: 2% SDS, 10% glycerol, 50 mM Tris-HCl, 0.02% bromophenol blue. In samples that were reduced, either DTT (50 mM final concentration) or β-mercaptoethanol (5% final concentration) were added. Equal volumes of lysate or supernatant samples were loaded on NuPAGE 4-12% Bis-Tris gels (Thermo Fisher Scientific, Waltham Mass.) without heating/boiling. Proteins were transferred to PVDF membranes (Millipore, Billerica, Mass.) and blotted with anti-hCystatin C, and developed by enhanced chemiluminescence (ECL; Thermo Fisher Scientific). ECL films were scanned, and densities of bands were determined using the gel analysis features of Fiji.^59
(§2) HEK-239T cells were plated on 6-well plates and cultured for 2 days, at which point reduced glutathione (GSH) (Sigma, St. Louis, Mo.) or N-acetylcystein (NAC) (Sigma) were added to the indicated concentrations. Cells were incubated with compounds for 72 hours, and 100 μl samples of supernatants were removed at 24, 48, and 72 hours. Supernatants were cleared by centrifugation (10 minutes, 21,000×g, 4° C.). Sample buffer containing SDS, glycerol, Tris-HCl pH 6.8, and bromophenol blue was added to each sample to the following final concentrations: 2% SDS, 10% glycerol, 50 mM Tris-HCl, 0.02% bromophenol blue. When indicated, cells were washed with PBS and lysed and cystatin C levels were determined by means of Western blot analysis.
as §1

[3] = tested on: HEK-293T cells; experiment: Viability and proliferation of hCC-expressing HEK-293T cells in the presence of reducing agents; format: cell-based, human
Description: as §2

[4] = biological target: T3, Cyst-C L68Q (Homo sapiens, UniProt P01034, L94Q); experiment: Incubation of plasma or brain extracts of Cyst-C L68Q transgenic mice with NAC, non-reducing Western blot; format: biochemical; conditions: 1 h at 37° C.
T3 construct: from tissue; host or cells: plasma and brain extracts of Cyst-C L68Q transgenic mice (from Levy, New York University)
T3 sequence (P01034 27-146 L94Q): T1 sequence (P01034 27-146 L94Q)
Description: FIG. 7. High molecular weight complexes of Cyst-C L68Q can be detected in transgenic mice. Short incubation of NAC impairs oligomerization of Cyst-C L68Q on blood and brain extracts. Plasma or brain extracts were incubated in presence of NAC during 1 h at 37° C. with indicated concentrations. Samples were mixed with 2% SDS without reducing agents prior to electrophoresis, and proteins levels were detected by biotinylated anti-cystatin C antibody followed by streptavidin-HRP.
Additional results have been generated from transgenic mice that were obtained from our collaborator Eufrat Levy at New York University. These mice have been transformed with a human genomic DNA which contains the coding sequence of Cyst-C, […] non-coding portions of the gene which may impact expression levels. […] Western blots from the mouse tissue extracts are not as clean as blots from the cell system, as the antibody we use to detect was raised in a mouse. […] Although there are several non-specific high molecular weight bands observed in the non-transgenic samples, a clear high molecular weight “smear” is seen in the transgenic animals, consistent with what we observe in supernatant from the cell culture system.

[5] = biological target: T4, amyloid-cystatin protein complex aggregates in the skin (Homo sapiens, UniProt P01034, L94Q); experiment: Cystatin C immunostaining of skin biopsies from HCCAA patients (hCC L68Q carriers) on NAC therapy; format: in vivo
T4 construct: from tissue; host or cells: human skin biopsies from HCCAA patients
T4 sequence (P01034 27-146 L94Q): T1 sequence (P01034 27-146 L94Q)
Description: Three 4 mm skin biopsies from the back were taken from each of the three studied individuals. The skin biopsies were formalin-fixed and paraffin-embedded. They were cut into 3 μm sections for immunohistochemistry and immunostained with rabbit polyclonal cystatin C antibody (Sigma, HPA013143) using the EnVision Detection System as previously described.^22 hCC immunoreactivity in the carriers skin biopsies was quantified by semi-automated image analysis using the ImageJ software as previously described.^22 Bright-field images of each section from the carriers were captured using a ×20/0.3 NA objective. RGB color images of the sections were imported to ImageJ. On each image, a rectangular 2000×2000 pixels region of interest (ROI) was defined. Subsequent processing yielding the % area coverage of hCC immunoreactivity within each ROI was performed as previously described^22. […] The second biopsy was taken immediately prior to the family-wide initiation of NAC treatment (600 mg of NAC 3× per day for 6 months). The third biopsy was taken following 6 months of 600 mg 3× per day of NAC therapy.
The proband received 400 mg NAC 4× per day for 9 months followed by 600 mg 3× per day for 6 months. The parent received only the 600 mg 3× per day for 6 months course. The proband never missed a dose; the parent did miss the middle dose 2-3 times per week.

[6] = human, in vivo

Compound: CC(=O)N[C@@H](CS)C(N)=O
concentration at which equivalent loss of high molecular signal was observed [1]: 1 mM | ability to disrupt high molecular weight complexes of L68Q Cyst-C [1]: retain the ability to disrupt

Compound: O[C@@H](CS)[C@@H](O)CS [DTT]
oligomerization of hCC WT and L68Q variant in presence of reducing agent [1]: completely abolished

Compound: CC(=O)N[C@@H](CS)C(=O)O [NAC, N-acetyl cysteine]
HMW of secreted hCC L68Q (quantitation) [1]: almost complete ablation | oligomerization/dimerization levels of secreted hCC L68Q variant in vitro ([1]; 3 or 10 mM): severely reduces | high molecular weight complexes of L68Q Cyst-C [1]: significant reduction | concentration at which equivalent loss of high molecular signal was observed [1]: 10 mM | presence of HMW and LMW of secreted hCC L68Q [2]: completely abolished | reduction of HMW and LMW of secreted hCC L68Q [2]: appreciable but incomplete reduction | dimerization status of the intracellular levels of L68Q hCC ([2]; extracellular treatment of cells (data not shown)): does not appear to impact | effect on oligomerization of secreted hCC L68Q ([2]; 24 h and 48 h): only incompletely effective | effect on oligomerization of secreted hCC L68Q ([2]; after 72 h): no significant effect | Cyst-C monomer [4]: causes the appearance of monomer | high molecular weight smear of transgenic human Cyst-C [4]: reduces this smear | reduction in staining of skin biopsy ([5]; parent), 600 mg 3× per day for 6 months, middle dose missed 2-3 times per week): 50% | progression of amyloid-cystatin stain intensity between skin biopsy #1 and #2 ([5]; proband, on NAC for about 9 months, stopped a few months prior to second biopsy): had not progressed in any significant way | reduction in staining of skin biopsy ([5]; sibling, lower doses of NAC): less obvious | tolerability of oral therapy [6]: well tolerated and without adverse events

Compound: COC(=O)[C@H](CS)NC(C)=O [NAC-methyl ester, N-acetylcysteine methyl ester]
concentration at which equivalent loss of high molecular signal was observed [1]: 1 mM | ability to disrupt high molecular weight complexes of L68Q Cyst-C [1]: retain the ability to disrupt

Compound: GSSH
high molecular weight complexes of L68Q Cyst-C [1]: does not affect

More lines, main results first:

inhibition at 3000 µM ([1]; cellular extract, 37° C., read-out: inhibition of the HMW on the intracellular fraction of the L68Q hCC variant (densitometry)): ~50% | inhibition at 3000 µM ([1]; supernatant, 37° C., read-out: inhibition of the HMW in the secreted fraction of the L68Q hCC variant (densitometry)): ~90% | HMW of secreted hCC L68Q (quantitation) [1]: almost complete ablation | amount of dimer and/or HMW oligomer in secreted and intracellular fraction of hCC WT or L68Q variant ([1]; 3 or 10 mM, 37° C.): severely reduced | oligomerization/dimerization levels of secreted hCC L68Q variant in vitro ([1]; 3 or 10 mM): severely reduces | high molecular weight complexes of L68Q Cyst-C [1]: significant reduction | presence of HMW and LMW of secreted hCC L68Q [2]: completely abolished | reduction of HMW and LMW of secreted hCC L68Q [2]: appreciable but incomplete reduction | effect on oligomerization of secreted hCC L68Q ([2]; 24 h and 48 h): only incompletely effective | effect on oligomerization of secreted hCC L68Q ([2]; after 72 h): no significant effect
Compound: N[C@@H](CCC(=O)N[C@@H](CS)C(=O)NCC(=O)O)C(=O)O [GSH, glutathione]
cell viability for the duration of the experiment ([3]; all concentrations (up to 10 mM), 72 hours): viable | proliferation of the cells ([3]; highest 10 mM concentration (data not shown)): slightly impacted

high molecular weight complexes of L68Q Cyst-C [1]: does not affect
Compound: CC(=O)N[C@@H](CO)C(=O)O [NAS, n-acetyl-serine]

oligomerization of hCC WT and L68Q variant in presence of reducing agent [1]: completely abolished
Compound: OCCS [b-mercaptoethanol]
